PubChem BioAssay AID1918932 (Molecular Pharmacology Branch, DTP, NCI, 2023)

System: 171881-019-R-J1-PDC complex spheroid viability
Assay: Anticancer human tumor 171881-019-R-J1-PDC patient-derived invasive breast carcinoma cell line growth inhibition
Details: for IC50: curve of first compound; for viability, T/C: stronger effect = lower value
Method in brief: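 Drug combinations with the LSD1 inhibitor iadademstat tested on tumor cells co-cultured as spheroids with endothelial cells and mesenchymal stem cells. Concentrations descended in half-log increments from clinical Cmax or 10 microM.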
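Note: spheroids exposed to agents for 7 days after 3 days growth.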

Work on CC[C@@]1(O)C(=O)OCc2c1cc1n(c2=O)Cc2cc3c(CN(C)C)c(O)ccc3nc2-1 + NC1CCC(NC2CC2c2ccccc2)CC1 yielded an IC50 (second compound 0.1 µM) of over 100 nM, an IC50 (second compound 0.316 µM) of over 100 nM and an IC50 (second compound 1 µM) of over 100 nM. For the same compound, the IC50 (second compound 3.16 µM) was over 100 nM, the IC50 (second compound 10 µM) was over 100 nM and the viability, T/C (second compound 0.1 µM, first compound 0.000316 µM) was 83.9%. It also gave a viability, T/C (second compound 0.1 µM, first compound 0.001 µM) of 91.8%, a viability, T/C (second compound 0.1 µM, first compound 0.00316 µM) of 122% and a viability, T/C (second compound 0.1 µM, first compound 0.01 µM) of 74.7%. The viability, T/C (second compound 0.1 µM, first compound 0.0316 µM) was 69.5%, the viability, T/C (second compound 0.1 µM, first compound 0.1 µM) was 50.6% and the viability, T/C (second compound 0.316 µM, first compound 0.000316 µM) was 80.2%. It also gave a viability, T/C (second compound 0.316 µM, first compound 0.001 µM) of 86.1%, a viability, T/C (second compound 0.316 µM, first compound 0.00316 µM) of 125% and a viability, T/C (second compound 0.316 µM, first compound 0.01 µM) of 71.1%. For the same compound, the viability, T/C (second compound 0.316 µM, first compound 0.0316 µM) was 67.3%, the viability, T/C (second compound 0.316 µM, first compound 0.1 µM) was 56.5% and the viability, T/C (second compound 1 µM, first compound 0.000316 µM) was 87.5%. The viability, T/C (second compound 1 µM, first compound 0.001 µM) was 89.4%, the viability, T/C (second compound 1 µM, first compound 0.00316 µM) was 128% and the viability, T/C (second compound 1 µM, first compound 0.01 µM) was 77.6%. The viability, T/C (second compound 1 µM, first compound 0.0316 µM) was 72.4%, the viability, T/C (second compound 1 µM, first compound 0.1 µM) was 59% and the viability, T/C (second compound 3.16 µM, first compound 0.000316 µM) was 95.2%. For the same compound, the viability, T/C (second compound 3.16 µM, first compound 0.001 µM) was 94.5%, the viability, T/C (second compound 3.16 µM, first compound 0.00316 µM) was 138% and the viability, T/C (second compound 3.16 µM, first compound 0.01 µM) was 83.1%. It also gave a viability, T/C (second compound 3.16 µM, first compound 0.0316 µM) of 75.8%, a viability, T/C (second compound 3.16 µM, first compound 0.1 µM) of 62.3% and a viability, T/C (second compound 10 µM, first compound 0.000316 µM) of 88%. It also gave a viability, T/C (second compound 10 µM, first compound 0.001 µM) of 93.7%, a viability, T/C (second compound 10 µM, first compound 0.00316 µM) of 133% and a viability, T/C (second compound 10 µM, first compound 0.01 µM) of 92.7%. The viability, T/C (second compound 10 µM, first compound 0.0316 µM) was 90.7% and the viability, T/C (second compound 10 µM, first compound 0.1 µM) was 76.4%.

CCc1c2c(nc3ccc(O)cc13)-c1cc3c(c(=O)n1C2)COC(=O)[C@]3(O)CC + NC1CCC(NC2CC2c2ccccc2)CC1 was tested, and the IC50 (second compound 0.1 µM) was 3.45 nM, the IC50 (second compound 0.316 µM) was 3.88 nM and the IC50 (second compound 1 µM) was 4.87 nM. The IC50 (second compound 3.16 µM) was 5.52 nM, the IC50 (second compound 10 µM) was 5.75 nM and the viability, T/C (second compound 0.1 µM, first compound 0.000949 µM) was 64.2%. It also gave a viability, T/C (second compound 0.1 µM, first compound 0.003 µM) of 53.5%, a viability, T/C (second compound 0.1 µM, first compound 0.00949 µM) of 32.2% and a viability, T/C (second compound 0.1 µM, first compound 0.03 µM) of 20.5%. It also gave a viability, T/C (second compound 0.1 µM, first compound 0.0949 µM) of 8.51%, a viability, T/C (second compound 0.1 µM, first compound 0.3 µM) of 6.45% and a viability, T/C (second compound 0.316 µM, first compound 0.000949 µM) of 67.5%. It also gave a viability, T/C (second compound 0.316 µM, first compound 0.003 µM) of 55.5%, a viability, T/C (second compound 0.316 µM, first compound 0.00949 µM) of 33.2% and a viability, T/C (second compound 0.316 µM, first compound 0.03 µM) of 20.6%. It also gave a viability, T/C (second compound 0.316 µM, first compound 0.0949 µM) of 9.31%, a viability, T/C (second compound 0.316 µM, first compound 0.3 µM) of 6.46% and a viability, T/C (second compound 1 µM, first compound 0.000949 µM) of 69.5%. The viability, T/C (second compound 1 µM, first compound 0.003 µM) was 61.4%, the viability, T/C (second compound 1 µM, first compound 0.00949 µM) was 34.8% and the viability, T/C (second compound 1 µM, first compound 0.03 µM) was 22.4%. The viability, T/C (second compound 1 µM, first compound 0.0949 µM) was 10.3%, the viability, T/C (second compound 1 µM, first compound 0.3 µM) was 7.43% and the viability, T/C (second compound 3.16 µM, first compound 0.000949 µM) was 75%. For the same compound, the viability, T/C (second compound 3.16 µM, first compound 0.003 µM) was 65.3%, the viability, T/C (second compound 3.16 µM, first compound 0.00949 µM) was 35.5% and the viability, T/C (second compound 3.16 µM, first compound 0.03 µM) was 21.9%. The viability, T/C (second compound 3.16 µM, first compound 0.0949 µM) was 10.3%, the viability, T/C (second compound 3.16 µM, first compound 0.3 µM) was 7.23% and the viability, T/C (second compound 10 µM, first compound 0.000949 µM) was 86%. The viability, T/C (second compound 10 µM, first compound 0.003 µM) was 66.8%, the viability, T/C (second compound 10 µM, first compound 0.00949 µM) was 35.6% and the viability, T/C (second compound 10 µM, first compound 0.03 µM) was 21.8%. The viability, T/C (second compound 10 µM, first compound 0.0949 µM) was 9.69% and the viability, T/C (second compound 10 µM, first compound 0.3 µM) was 6.81%.
